Results as given in patent publication US20030083469A1, “Allosteric control of nuclear hormone receptors” (The Salk Institute for Biological Studies, priority 1995, published 2003).

Assays:
[1] = molecular target: T1, GST-hRXRα (Homo sapiens, UniProt P19793); experiment: Ligand binding assay with GST-RXR (glutathione-sepharose); settings: 50 nM [3H] LG69; 2 μM unlabeled ligand
T1 construct: made in house
T1 sequence (P19793 1-462): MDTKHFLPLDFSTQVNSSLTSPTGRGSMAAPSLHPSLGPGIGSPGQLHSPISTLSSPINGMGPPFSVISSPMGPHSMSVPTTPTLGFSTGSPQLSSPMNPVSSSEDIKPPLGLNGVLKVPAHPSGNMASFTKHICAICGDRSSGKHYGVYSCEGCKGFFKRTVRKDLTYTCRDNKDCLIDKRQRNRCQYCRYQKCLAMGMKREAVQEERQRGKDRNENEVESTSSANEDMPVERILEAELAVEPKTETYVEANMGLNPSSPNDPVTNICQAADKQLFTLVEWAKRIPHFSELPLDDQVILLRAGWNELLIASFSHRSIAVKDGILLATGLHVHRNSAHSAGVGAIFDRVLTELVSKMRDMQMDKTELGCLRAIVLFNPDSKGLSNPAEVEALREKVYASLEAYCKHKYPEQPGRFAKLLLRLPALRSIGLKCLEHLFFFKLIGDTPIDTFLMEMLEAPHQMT

[2] = molecular target: T2, RXR LBD (Homo sapiens, UniProt P19793); experiment: Transient transfection, RXR LBD expressed alone (UASG x4 TK-LUC); format: cell-based; settings: 100 nM LG69
T2 construct: or the human RXRα LBD (Glu 203 -Thr 462); expressed in transfected cells; host or cells: CV-1
T2 sequence (P19793 203-462): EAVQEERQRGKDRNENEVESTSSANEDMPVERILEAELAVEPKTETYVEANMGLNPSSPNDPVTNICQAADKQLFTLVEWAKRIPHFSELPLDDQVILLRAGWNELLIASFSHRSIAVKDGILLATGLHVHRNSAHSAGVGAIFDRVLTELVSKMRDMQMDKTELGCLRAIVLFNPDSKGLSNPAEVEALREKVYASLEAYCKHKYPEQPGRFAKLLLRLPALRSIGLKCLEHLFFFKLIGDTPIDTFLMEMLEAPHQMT
Protocol: (§1) CV-1 cells were grown in Dulbecco's Modified Eagle's medium supplemented with 10% resin-charcoal stripped (Samuels et al., Endocrinology 105:80-85 (1979)) fetal bovine serum, 50 U/ml penicillin G and 50 μg/ml streptomycin sulfate (DMEM-FBS) at 37° C. in 5% CO2. One day prior to transfection, cells were plated to 50-80% confluence using phenol-red free DMEM-FBS. Cells were transfected by lipofection using N-{2-(2,3)-dioleoyloxy)propyl-N,N,N-trimethyl ammonium methyl sulfate} according to the manufacturer's instructions (DOTAP, Boehringer Mannheim). […] Cells were harvested and assayed for luciferase and β-galactosidase activity. All points were performed in triplicate in each experiment and varied by less than 10%. Each experiment was repeated three or more times with similar results.
(§2) Since RXR serves as a silent partner in the T3R and RAR pathways, it was next investigated whether RXR could serve as an active component in other complexes. To search for such complexes, the LBD of a number of nuclear receptors were fused to the GAL4 DBD, and tested to determine whether the RXR LBD could confer LG69 responsiveness upon these GAL-LBD chimeras. […] Normalized luciferase activity was determined and plotted as fold-activation relative to untreated cells.

[3] = molecular target: T3, GAL chimera containing the LBD of VDR + RXR LBD (Homo sapiens, UniProt P19793); experiment: Transient transfection of GAL-VDR LBD chimera with RXR LBD; format: cell-based; settings: 100 nM LG69
T3 construct: or the human RXRα LBD (Glu 203 -Thr 462); expressed in transfected cells; host or cells: CV-1
T3 sequence (P19793 203-462): T2 sequence (P19793 203-462)
Protocol: as §1, §2

[4] = molecular target: T4, Nurrl (Mus musculus, UniProt Q06219); experiment: Transient transfection of full-length Nurrl on NBRE x3 TK-LUC; format: cell-based; settings: Nurrl alone; 100 nM LG69
T4 construct: an expression vector for full-length mouse Nurrl; expressed in transfected cells; host or cells: CV-1
Protocol: as §1
Thus, CV-1 cells were tranfected with NBRE×3 TK-LUC (300 ng/10^5 cells) , CMX-βgal (500 ng/10^5 cells), alone or with CMX-Nurrl (100 ng/10^5 cells) and CMX-hRXRα (100 ng/10^5 cells) as indicated in FIG. 7B. Following transfection, cells were treated with or without 100 nM LG69. Normalized luciferase activity was determined and plotted as reporter activity.

T4 sequence (Q06219 whole entry): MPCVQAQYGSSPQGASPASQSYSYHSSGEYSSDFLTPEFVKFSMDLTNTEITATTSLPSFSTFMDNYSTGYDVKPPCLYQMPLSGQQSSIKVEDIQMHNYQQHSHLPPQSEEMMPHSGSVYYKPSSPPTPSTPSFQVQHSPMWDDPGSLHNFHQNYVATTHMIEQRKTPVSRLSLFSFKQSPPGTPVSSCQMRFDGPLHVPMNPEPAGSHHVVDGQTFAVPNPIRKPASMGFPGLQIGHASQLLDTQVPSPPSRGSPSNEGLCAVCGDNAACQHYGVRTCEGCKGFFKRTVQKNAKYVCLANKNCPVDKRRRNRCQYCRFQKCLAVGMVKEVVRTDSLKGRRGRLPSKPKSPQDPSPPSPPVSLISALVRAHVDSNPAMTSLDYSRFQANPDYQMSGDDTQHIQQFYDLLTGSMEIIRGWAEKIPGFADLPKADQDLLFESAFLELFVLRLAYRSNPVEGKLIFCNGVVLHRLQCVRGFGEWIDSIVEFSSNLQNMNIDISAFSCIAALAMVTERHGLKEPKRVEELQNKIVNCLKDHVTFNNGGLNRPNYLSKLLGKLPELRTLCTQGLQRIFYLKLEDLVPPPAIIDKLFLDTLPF

`CC=C(c1ccc(C(=O)O)cc1)c1cc2c(cc1C)C(C)(C)CCC2(C)C` [LG69, 4-{1-(3,5,5,8,8-pentamethyl-5,6,7,8-tetrahydro-2-napthalenyl)-1-propenyl}benzoic acid] was tested, and the “competition of [3H] LG69 binding to GST-RXR by unlabeled ligand” value [1] was “specifically completed”, the LG69 responsiveness [2] was “not seen” and the LG69 inducibility [3] was “not observed”. For the same compound, the “responsiveness of Nurrl on the NBRE reporter” value [4] was “not responsive”.
